Results: PubChem BioAssay AID1963861 (Molecular Pharmacology Branch, DTP, NCI, 2024)

Tested on: 885724-159-R-J1-PDC KRAS PDC multicell spheroid viability
Experiment: Anticancer human tumor 885724-159-R-J1-PDC patient-derived pancreatic adenocarcinoma cell line growth inhibition [KRAS2]
Conditions: for IC50: curve of first compound; for viability, T/C: stronger effect = lower value
Summary of the method: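 Combination screen of spheroid viability in tumor-cell co-cultures with endothelial (HUVEC) and mesenchymal stem cell stroma. Each agent was tested in half-log dilutions, topping at clinical Cmax or at 10 microM without a known Cmax.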

[1] = second compound 0.0316 µM, first compound 0.0316 µM
[2] = second compound 0.0316 µM, first compound 0.1 µM
[3] = second compound 0.0316 µM, first compound 0.316 µM
[4] = second compound 0.0316 µM, first compound 1 µM
[5] = second compound 0.0316 µM, first compound 3.16 µM
[6] = second compound 0.0316 µM, first compound 10 µM
[7] = second compound 0.1 µM, first compound 0.0316 µM
[8] = second compound 0.1 µM, first compound 0.1 µM
[9] = second compound 0.1 µM, first compound 0.316 µM
[10] = second compound 0.1 µM, first compound 1 µM
[11] = second compound 0.1 µM, first compound 3.16 µM
[12] = second compound 0.1 µM, first compound 10 µM
[13] = second compound 0.316 µM, first compound 0.0316 µM
[14] = second compound 0.316 µM, first compound 0.1 µM
[15] = second compound 0.316 µM, first compound 0.316 µM
[16] = second compound 0.316 µM, first compound 1 µM
[17] = second compound 0.316 µM, first compound 3.16 µM
[18] = second compound 0.316 µM, first compound 10 µM
[19] = second compound 1 µM, first compound 0.0316 µM
[20] = second compound 1 µM, first compound 0.1 µM
[21] = second compound 1 µM, first compound 0.316 µM
[22] = second compound 1 µM, first compound 1 µM
[23] = second compound 1 µM, first compound 3.16 µM
[24] = second compound 1 µM, first compound 10 µM
[25] = second compound 3.16 µM, first compound 0.0316 µM
[26] = second compound 3.16 µM, first compound 0.1 µM
[27] = second compound 3.16 µM, first compound 0.316 µM
[28] = second compound 3.16 µM, first compound 1 µM
[29] = second compound 3.16 µM, first compound 3.16 µM
[30] = second compound 3.16 µM, first compound 10 µM
[31] = second compound 0.0316 µM, first compound 0.01 µM
[32] = second compound 0.1 µM, first compound 0.01 µM
[33] = second compound 0.316 µM, first compound 0.01 µM
[34] = second compound 1 µM, first compound 0.01 µM
[35] = second compound 3.16 µM, first compound 0.01 µM
[36] = second compound 0.0316 µM, first compound 0.00316 µM
[37] = second compound 0.1 µM, first compound 0.00316 µM
[38] = second compound 0.316 µM, first compound 0.00316 µM
[39] = second compound 1 µM, first compound 0.00316 µM
[40] = second compound 3.16 µM, first compound 0.00316 µM
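Further: spheroids exposed to agents for 7 days before readout.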

## CC(C)NCC(C(=O)N1CCN(c2ncnc3c2C(C)CC3O)CC1)c1ccc(Cl)cc1 (stereo not given) + C=CC(=O)N1CCN(c2nc(OCC3CCCN3C)nc3c2CCN(c2cccc4cccc(C)c24)C3)CC1CC#N
Second compound 0.0316 µM
  IC50: > 10000 nM
Second compound 0.1 µM
  IC50: > 10000 nM
Second compound 0.316 µM
  IC50: > 10000 nM
Second compound 1 µM
  IC50: > 10000 nM
Second compound 3.16 µM
  IC50: 43.6 nM
[1]
  viability, T/C: 84.5%
[2]
  viability, T/C: 83.1%
[3]
  viability, T/C: 81.1%
[4]
  viability, T/C: 75.4%
[5]
  viability, T/C: 75.6%
[6]
  viability, T/C: 62.5%
[7]
  viability, T/C: 90.8%
[8]
  viability, T/C: 79.2%
[9]
  viability, T/C: 69.9%
[10]
  viability, T/C: 65.9%
[11]
  viability, T/C: 79%
[12]
  viability, T/C: 56.9%
[13]
  viability, T/C: 89.3%
[14]
  viability, T/C: 74.3%
[15]
  viability, T/C: 67.9%
[16]
  viability, T/C: 68.9%
[17]
  viability, T/C: 69.8%
[18]
  viability, T/C: 57.2%
[19]
  viability, T/C: 83.5%
[20]
  viability, T/C: 72.5%
[21]
  viability, T/C: 61.5%
[22]
  viability, T/C: 58.7%
[23]
  viability, T/C: 61.4%
[24]
  viability, T/C: 48.3%
[25]
  viability, T/C: 55.9%
[26]
  viability, T/C: 37%
[27]
  viability, T/C: 33.8%
[28]
  viability, T/C: 26.8%
[29]
  viability, T/C: 16.4%
[30]
  viability, T/C: 6.38%

## CC1COCCN1c1cc(-c2ccnn2C)c2ccnc(-c3ccn[nH]3)c2n1 (stereo not given) + C=CC(=O)N1CCN(c2nc(OCC3CCCN3C)nc3c2CCN(c2cccc4cccc(C)c24)C3)CC1CC#N
Second compound 0.0316 µM
  IC50: 1790 nM
Second compound 0.1 µM
  IC50: 909 nM
Second compound 0.316 µM
  IC50: 723 nM
Second compound 1 µM
  IC50: 298 nM
Second compound 3.16 µM
  IC50: 17 nM
[31]
  viability, T/C: 102%
[1]
  viability, T/C: 77.8%
[2]
  viability, T/C: 64.8%
[3]
  viability, T/C: 58.8%
[4]
  viability, T/C: 48.8%
[5]
  viability, T/C: 49.3%
[32]
  viability, T/C: 103%
[7]
  viability, T/C: 83.7%
[8]
  viability, T/C: 65.5%
[9]
  viability, T/C: 54.5%
[10]
  viability, T/C: 45.8%
[11]
  viability, T/C: 51.2%
[33]
  viability, T/C: 95%
[13]
  viability, T/C: 74.6%
[14]
  viability, T/C: 60.8%
[15]
  viability, T/C: 54.6%
[16]
  viability, T/C: 46.4%
[17]
  viability, T/C: 47.8%
[34]
  viability, T/C: 85%
[19]
  viability, T/C: 76.3%
[20]
  viability, T/C: 59.7%
[21]
  viability, T/C: 51.5%
[22]
  viability, T/C: 41.6%
[23]
  viability, T/C: 42.4%
[35]
  viability, T/C: 53.4%
[25]
  viability, T/C: 46.5%
[26]
  viability, T/C: 37.2%
[27]
  viability, T/C: 33.5%
[28]
  viability, T/C: 25.4%
[29]
  viability, T/C: 23.4%

## CCN1CCN(Cc2ccc(Nc3ncc(F)c(-c4cc(F)c5nc(C)n(C(C)C)c5c4)n3)nc2)CC1 + C=CC(=O)N1CCN(c2nc(OCC3CCCN3C)nc3c2CCN(c2cccc4cccc(C)c24)C3)CC1CC#N
Second compound 0.0316 µM
  IC50: > 1000 nM
Second compound 0.1 µM
  IC50: > 1000 nM
Second compound 0.316 µM
  IC50: > 1000 nM
Second compound 1 µM
  IC50: > 1000 nM
Second compound 3.16 µM
  IC50: 10 nM
[36]
  viability, T/C: 105%
[31]
  viability, T/C: 102%
[1]
  viability, T/C: 91.2%
[2]
  viability, T/C: 89.1%
[3]
  viability, T/C: 89.3%
[4]
  viability, T/C: 89.6%
[37]
  viability, T/C: 93.1%
[32]
  viability, T/C: 93.6%
[7]
  viability, T/C: 75.9%
[8]
  viability, T/C: 74.5%
[9]
  viability, T/C: 77.7%
[10]
  viability, T/C: 91.2%
[38]
  viability, T/C: 101%
[33]
  viability, T/C: 88.1%
[13]
  viability, T/C: 78%
[14]
  viability, T/C: 78.4%
[15]
  viability, T/C: 76.6%
[16]
  viability, T/C: 82.5%
[39]
  viability, T/C: 75.7%
[34]
  viability, T/C: 86.1%
[19]
  viability, T/C: 78.1%
[20]
  viability, T/C: 68.5%
[21]
  viability, T/C: 72.4%
[22]
  viability, T/C: 82.3%
[40]
  viability, T/C: 53.1%
[35]
  viability, T/C: 54.1%
[25]
  viability, T/C: 46%
[26]
  viability, T/C: 41.3%
[27]
  viability, T/C: 49.4%
[28]
  viability, T/C: 47.6%

## CCNC(=O)CC1N=C(c2ccc(Cl)cc2)c2cc(OC)ccc2-n2c(C)nnc21 (stereo not given) + C=CC(=O)N1CCN(c2nc(OCC3CCCN3C)nc3c2CCN(c2cccc4cccc(C)c24)C3)CC1CC#N
Second compound 0.0316 µM
  IC50: 3550 nM
Second compound 0.1 µM
  IC50: 1180 nM
Second compound 0.316 µM
  IC50: 835 nM
Second compound 1 µM
  IC50: 855 nM
Second compound 3.16 µM
  IC50: < 31.6 nM
[1]
  viability, T/C: 110%
[2]
  viability, T/C: 98.9%
[3]
  viability, T/C: 74.7%
[4]
  viability, T/C: 63.9%
[5]
  viability, T/C: 49.9%
[6]
  viability, T/C: 44.8%
[7]
  viability, T/C: 102%
[8]
  viability, T/C: 89.1%
[9]
  viability, T/C: 64.8%
[10]
  viability, T/C: 51%
[11]
  viability, T/C: 46.3%
[12]
  viability, T/C: 45.7%
[13]
  viability, T/C: 118%
[14]
  viability, T/C: 105%
[15]
  viability, T/C: 63.5%
[16]
  viability, T/C: 50.4%
[17]
  viability, T/C: 45%
[18]
  viability, T/C: 42.4%
[19]
  viability, T/C: 87.2%
[20]
  viability, T/C: 82.7%
[21]
  viability, T/C: 66.5%
[22]
  viability, T/C: 46.5%
[23]
  viability, T/C: 45%
[24]
  viability, T/C: 39.5%
[25]
  viability, T/C: 49%
[26]
  viability, T/C: 49.4%
[27]
  viability, T/C: 39.2%
[28]
  viability, T/C: 20.6%
[29]
  viability, T/C: 29.3%
[30]
  viability, T/C: 27.9%

## Cn1nccc1Nc1nccc(-c2cc3c(s2)C(C)(C)N(CCN2CCOCC2)C3=O)n1 + C=CC(=O)N1CCN(c2nc(OCC3CCCN3C)nc3c2CCN(c2cccc4cccc(C)c24)C3)CC1CC#N
Second compound 0.0316 µM
  IC50: 601 nM
Second compound 0.1 µM
  IC50: 506 nM
Second compound 0.316 µM
  IC50: 315 nM
Second compound 1 µM
  IC50: 421 nM
Second compound 3.16 µM
  IC50: < 31.6 nM
[1]
  viability, T/C: 98.1%
[2]
  viability, T/C: 81%
[3]
  viability, T/C: 57.7%
[4]
  viability, T/C: 43.8%
[5]
  viability, T/C: 34%
[6]
  viability, T/C: 29.6%
[7]
  viability, T/C: 97.5%
[8]
  viability, T/C: 78.4%
[9]
  viability, T/C: 58%
[10]
  viability, T/C: 39.5%
[11]
  viability, T/C: 32.8%
[12]
  viability, T/C: 31.8%
[13]
  viability, T/C: 87.2%
[14]
  viability, T/C: 72.8%
[15]
  viability, T/C: 48.2%
[16]
  viability, T/C: 38.2%
[17]
  viability, T/C: 31.4%
[18]
  viability, T/C: 29.2%
[19]
  viability, T/C: 75.5%
[20]
  viability, T/C: 69.4%
[21]
  viability, T/C: 55%
[22]
  viability, T/C: 36.1%
[23]
  viability, T/C: 29.6%
[24]
  viability, T/C: 28.2%
[25]
  viability, T/C: 45.8%
[26]
  viability, T/C: 32.2%
[27]
  viability, T/C: 25.5%
[28]
  viability, T/C: 18.1%
[29]
  viability, T/C: 14.7%
[30]
  viability, T/C: 9.26%

## Cn1ncnc1[C@H]1c2n[nH]c(=O)c3cc(F)cc(c23)N[C@@H]1c1ccc(F)cc1 + C=CC(=O)N1CCN(c2nc(OCC3CCCN3C)nc3c2CCN(c2cccc4cccc(C)c24)C3)CC1CC#N
Second compound 0.0316 µM
  IC50: > 100 nM
Second compound 0.1 µM
  IC50: > 100 nM
Second compound 0.316 µM
  IC50: > 100 nM
Second compound 1 µM
  IC50: > 100 nM
Second compound 3.16 µM
  IC50: > 100 nM
Second compound 0.0316 µM, first compound 0.000316 µM
  viability, T/C: 115%
Second compound 0.0316 µM, first compound 0.001 µM
  viability, T/C: 117%
[36]
  viability, T/C: 108%
[31]
  viability, T/C: 103%
[1]
  viability, T/C: 97.8%
[2]
  viability, T/C: 96.1%
Second compound 0.1 µM, first compound 0.000316 µM
  viability, T/C: 106%
Second compound 0.1 µM, first compound 0.001 µM
  viability, T/C: 108%
[37]
  viability, T/C: 98.7%
[32]
  viability, T/C: 108%
[7]
  viability, T/C: 106%
[8]
  viability, T/C: 89.5%
Second compound 0.316 µM, first compound 0.000316 µM
  viability, T/C: 110%
Second compound 0.316 µM, first compound 0.001 µM
  viability, T/C: 111%
[38]
  viability, T/C: 106%
[33]
  viability, T/C: 102%
[13]
  viability, T/C: 112%
[14]
  viability, T/C: 88.6%
Second compound 1 µM, first compound 0.000316 µM
  viability, T/C: 100%
Second compound 1 µM, first compound 0.001 µM
  viability, T/C: 114%
[39]
  viability, T/C: 108%
[34]
  viability, T/C: 101%
[19]
  viability, T/C: 102%
[20]
  viability, T/C: 99.4%
Second compound 3.16 µM, first compound 0.000316 µM
  viability, T/C: 69.6%
Second compound 3.16 µM, first compound 0.001 µM
  viability, T/C: 61.4%
[40]
  viability, T/C: 63.3%
[35]
  viability, T/C: 67.7%
[25]
  viability, T/C: 59.5%
[26]
  viability, T/C: 59.7%
